Reference: ChEMBL document CHEMBL3091433, “Structure-based design of substituted hexafluoroisopropanol-arylsulfonamides as modulators of RORc” (Bioorg Med Chem Lett, 2013)

How the values were obtained:
PBMC [1] = assay: Cytotoxicity against human PBMC assessed as effect on cell physiology after 48 hrs by CellTiter-Glo assay
PBMC [2] = assay: Inhibition of IFNgamma production in human PBMC after 48 hrs by Sandwich ELISA
PBMC [3] = assay: Antiinflammatory activity in human PBMC assessed as inhibition of IL-17 production after 48 hrs by Sandwich ELISA relative to control; type: functional
[4] = biological target: T1, Nuclear receptor ROR-alpha (Homo sapiens, UniProt P35398); assay: Inverse agonist activity at GAL4-fused human RORa expressed in HEK293T cells assessed as suppression of basal transcriptional activity after 20 hrs by dual-glo luciferase reporter gene assay; type: cell-based, HEK-293T
T1 sequence (P35398 whole entry): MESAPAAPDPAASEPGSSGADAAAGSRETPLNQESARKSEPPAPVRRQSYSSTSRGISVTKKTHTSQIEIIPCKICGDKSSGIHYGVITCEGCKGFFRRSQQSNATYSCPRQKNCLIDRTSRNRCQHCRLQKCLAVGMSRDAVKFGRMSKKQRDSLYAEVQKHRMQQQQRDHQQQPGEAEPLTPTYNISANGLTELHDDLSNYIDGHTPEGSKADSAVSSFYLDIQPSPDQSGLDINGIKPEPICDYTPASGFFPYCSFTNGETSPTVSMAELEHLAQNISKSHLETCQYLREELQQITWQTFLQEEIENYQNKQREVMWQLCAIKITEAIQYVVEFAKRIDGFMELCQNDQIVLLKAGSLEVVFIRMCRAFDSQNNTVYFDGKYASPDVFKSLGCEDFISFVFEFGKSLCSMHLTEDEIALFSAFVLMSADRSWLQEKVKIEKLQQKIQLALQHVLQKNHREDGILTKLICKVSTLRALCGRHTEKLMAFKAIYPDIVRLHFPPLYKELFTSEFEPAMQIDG

[5] = biological target: T2, Nuclear receptor ROR-beta (Homo sapiens, UniProt Q92753); assay: Inverse agonist activity at GAL4-fused human RORb expressed in HEK293T cells assessed as suppression of basal transcriptional activity after 20 hrs by dual-glo luciferase reporter gene assay; type: cell-based, HEK-293T
T2 sequence (Q92753 whole entry): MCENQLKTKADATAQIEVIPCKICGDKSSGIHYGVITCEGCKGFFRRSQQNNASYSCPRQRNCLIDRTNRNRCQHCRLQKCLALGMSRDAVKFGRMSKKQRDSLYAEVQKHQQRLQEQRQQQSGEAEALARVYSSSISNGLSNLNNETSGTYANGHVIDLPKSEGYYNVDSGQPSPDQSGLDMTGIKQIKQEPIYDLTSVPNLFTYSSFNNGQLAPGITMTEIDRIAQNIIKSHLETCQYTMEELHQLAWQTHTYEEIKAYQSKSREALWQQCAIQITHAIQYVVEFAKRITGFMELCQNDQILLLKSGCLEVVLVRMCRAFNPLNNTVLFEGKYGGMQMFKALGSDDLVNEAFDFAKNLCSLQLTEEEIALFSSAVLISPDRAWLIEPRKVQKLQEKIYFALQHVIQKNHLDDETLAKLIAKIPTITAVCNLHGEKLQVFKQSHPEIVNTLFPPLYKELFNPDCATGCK

[6] = biological target: T3, Nuclear receptor ROR-gamma (Homo sapiens, UniProt P51449)
T3 sequence (P51449 whole entry): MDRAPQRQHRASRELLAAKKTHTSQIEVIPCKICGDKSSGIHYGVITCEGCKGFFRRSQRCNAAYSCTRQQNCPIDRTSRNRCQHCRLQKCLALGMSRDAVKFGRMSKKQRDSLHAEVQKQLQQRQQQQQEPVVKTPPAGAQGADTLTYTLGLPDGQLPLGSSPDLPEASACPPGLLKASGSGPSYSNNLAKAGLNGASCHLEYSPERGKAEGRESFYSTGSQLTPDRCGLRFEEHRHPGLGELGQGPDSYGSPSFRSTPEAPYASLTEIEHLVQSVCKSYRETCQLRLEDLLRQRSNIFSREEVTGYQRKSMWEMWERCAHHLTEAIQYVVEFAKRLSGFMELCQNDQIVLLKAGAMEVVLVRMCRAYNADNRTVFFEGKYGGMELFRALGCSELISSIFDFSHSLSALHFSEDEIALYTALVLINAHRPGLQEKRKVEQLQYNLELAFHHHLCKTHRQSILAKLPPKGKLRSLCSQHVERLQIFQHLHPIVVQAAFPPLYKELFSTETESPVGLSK
Description: Inverse agonist activity at GAL4-fused human RORc expressed in HEK293T cells assessed as suppression of basal transcriptional activity after 20 hrs by dual-glo luciferase reporter gene assay

PBMC [7] = assay: cells; conditions: Homo sapiens, 48 h

Row | SMILES | EC50 (PBMC [1]) | EC50 (PBMC [2]) | Imax (PBMC [3]) | EC50 [4] | EC50 [5] | EC50 [6] | EC50 (PBMC [7])
1 | O=S(=O)(c1ccc(F)cc1)N(CC(F)(F)F)c1ccc(C(O)(C(F)(F)F)C(F)(F)F)cc1 | > 20 µM | > 20 µM | 83% | 6 µM | 6 µM | 0.089 µM | 0.132 µM
2 | CCN(c1ccc(C(O)(C(F)(F)F)C(F)(F)F)cc1)S(=O)(=O)c1ccccc1 |  |  |  | 5 µM | 4 µM | 0.593 µM | 
3 | N#Cc1ccc(S(=O)(=O)N(CC(F)(F)F)c2ccc(C(O)(C(F)(F)F)C(F)(F)F)cc2)cc1 | > 20 µM | > 20 µM | 74% | 7 µM | 5 µM | 0.192 µM | 1 µM
